Test results reported in patent US11331299B2, “Medicinal use of serrulatane diterpenes” (The University of Sydney, priority 2016, dated 2022).

Tests used:
Assay in all cases: biochemical
Format in all cases: binding
[1] = target: receptors (Bioprint panel) (Homo sapiens, UniProt P14416); conditions: DOPAMINE D2S (h) (agonist radioligand); 10 μM; read-out: % Inhibition of Control Specific Binding
[2] = target: receptors (Bioprint panel) (Homo sapiens, UniProt Q9UKP6); conditions: read-out: % Inhibition of Control Specific Binding
[3] = target: receptors (Bioprint panel) (Homo sapiens, UniProt P41146); conditions: OPIOD & OPIOID-LIKE NOP (ORL1) (h) (agonist radioligand); 10 μM; read-out: % Inhibition of Control Specific Binding
[4] = target: receptors (Bioprint panel) (Homo sapiens, UniProt P41597); conditions: CHEMOKINES CCR2 (h) (agonist radioligand); 10 μM; read-out: % Inhibition of Control Specific Binding
[5] = target: receptors (Bioprint panel) (Homo sapiens, UniProt P30872); conditions: SOMASTATIN sst1 (h) (agonist radioligand); 10 μM; read-out: % Inhibition of Control Specific Binding
[6] = target: receptors (Bioprint panel) (Homo sapiens, UniProt P08908); conditions: read-out: % Inhibition of Control Specific Binding
[7] = target: receptors (Bioprint panel) (Homo sapiens, UniProt P30542); conditions: ADENOSINE A1 (h) (agonist radioligand); 10 μM; read-out: % Inhibition of Control Specific Binding
[8] = target: receptors (Bioprint panel) (Homo sapiens, UniProt P32245); conditions: MELANOCORTIN MC4 (h) (agonist radioligand); 10 μM; read-out: % Inhibition of Control Specific Binding
[9] = target: receptors (Bioprint panel) (Homo sapiens, UniProt Q9UBS5); conditions: GABA GABAB(1b) (h) (antagonist radioligand); 10 μM; read-out: % Inhibition of Control Specific Binding
[10] = target: receptors (Bioprint panel) (Rattus norvegicus, UniProt Q02294); conditions: Ca2+ channel (N) (antagonist radioligand); 10 μM; read-out: % Inhibition of Control Specific Binding
[11] = target: receptors (Bioprint panel) (Homo sapiens, UniProt P31645); conditions: 5-HT transporter (h) (antagonist radioligand); 10 μM; read-out: % Inhibition of Control Specific Binding
[12] = target: receptors (Bioprint panel) (Homo sapiens, UniProt Q9Y5N1); conditions: HISTAMINE H3 (h) (agonist radioligand); 10 μM; read-out: % Inhibition of Control Specific Binding
[13] = target: receptors (Bioprint panel) (Homo sapiens, UniProt P41968); conditions: MELANOCORTIN MC3 (h) (agonist radioligand); 10 μM; read-out: % Inhibition of Control Specific Binding
[14] = target: receptors (Bioprint panel) (Homo sapiens, UniProt P35414); conditions: APJ (apelin) (h) (agonist radioligand); 10 μM; read-out: % Inhibition of Control Specific Binding
[15] = target: receptors (Bioprint panel) (Homo sapiens, UniProt P43119); conditions: […] (PGI2) (h) (agonist radioligand); 10 μM; read-out: % Inhibition of Control Specific Binding
[16] = target: receptors (Bioprint panel) (Homo sapiens, UniProt P34969); conditions: read-out: % Inhibition of Control Specific Binding
[17] = target: receptors (Bioprint panel) (Homo sapiens, UniProt P43681); conditions: NICOTINIC […] N neuronal alpha 4beta 2 (h) (agonist radioligand); 10 μM; read-out: % Inhibition of Control Specific Binding
[18] = target: receptors (Bioprint panel) (Homo sapiens, UniProt P32241); conditions: […] VPAC1 (VIP1) (h) (agonist radioligand); 10 μM; read-out: % Inhibition of Control Specific Binding
[19] = target: receptors (Bioprint panel) (Homo sapiens, UniProt P10275); conditions: 10 μM
[20] = target: receptors (Bioprint panel) (Homo sapiens, UniProt P13945); conditions: Adrenergic beta3; 10 μM; read-out: % Inhibition of Control Specific Binding
[21] = target: receptors (Bioprint panel) (Homo sapiens, UniProt P20309); conditions: […] M3 (h) (antagonist radioligand); 10 μM; read-out: % Inhibition of Control Specific Binding
[22] = target: receptors (Bioprint panel) (Homo sapiens, UniProt Q01959); conditions: dopamine transporter (h) (antagonist radioligand); 10 μM; read-out: % Inhibition of Control Specific Binding
[23] = target: receptors (Bioprint panel) (Homo sapiens, UniProt P50052); conditions: A[…] AT2 (h) (agonist radioligand); 10 μM; read-out: % Inhibition of Control Specific Binding
[24] = target: receptors (Bioprint panel) (Homo sapiens, UniProt P02708); conditions: NICOTINIC […] N muscle-type (h) (antagonist radioligand); 10 μM; read-out: % Inhibition of Control Specific Binding
[25] = target: receptors (Bioprint panel) (Homo sapiens, UniProt P25105); conditions: […] ACTIVATED FACTOR PAF (h) (agonist radioligand); 10 μM; read-out: % Inhibition of Control Specific Binding
[26] = target: receptors (Bioprint panel) (Homo sapiens, UniProt P47871); conditions: glucagon (h) (agonist radioligand); 10 μM; read-out: % Inhibition of Control Specific Binding

Sequence of receptors (Bioprint panel) (Homo sapiens, UniProt P02708) (P02708 whole entry): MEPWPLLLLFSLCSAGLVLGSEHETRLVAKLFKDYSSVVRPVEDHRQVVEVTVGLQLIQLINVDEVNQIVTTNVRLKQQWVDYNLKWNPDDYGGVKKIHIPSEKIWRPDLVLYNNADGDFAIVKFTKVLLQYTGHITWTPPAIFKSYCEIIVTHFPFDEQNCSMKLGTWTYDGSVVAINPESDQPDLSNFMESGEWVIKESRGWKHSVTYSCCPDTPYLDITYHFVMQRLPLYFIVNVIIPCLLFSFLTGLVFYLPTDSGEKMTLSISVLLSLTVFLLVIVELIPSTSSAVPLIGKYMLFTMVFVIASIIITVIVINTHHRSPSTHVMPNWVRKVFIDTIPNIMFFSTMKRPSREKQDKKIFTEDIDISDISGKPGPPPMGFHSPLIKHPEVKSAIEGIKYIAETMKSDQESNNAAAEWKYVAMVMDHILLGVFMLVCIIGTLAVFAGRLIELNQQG
Sequence of receptors (Bioprint panel) (Homo sapiens, UniProt P30542) (P30542 whole entry): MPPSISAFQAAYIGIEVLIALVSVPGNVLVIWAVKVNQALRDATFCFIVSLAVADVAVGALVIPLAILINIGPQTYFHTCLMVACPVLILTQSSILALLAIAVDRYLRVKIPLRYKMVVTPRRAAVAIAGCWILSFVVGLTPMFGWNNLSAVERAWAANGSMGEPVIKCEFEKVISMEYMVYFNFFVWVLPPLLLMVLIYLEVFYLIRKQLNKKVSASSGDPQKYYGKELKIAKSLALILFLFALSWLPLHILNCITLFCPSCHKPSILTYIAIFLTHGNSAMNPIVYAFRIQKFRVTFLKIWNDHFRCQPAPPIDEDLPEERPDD
Sequence of receptors (Bioprint panel) (Homo sapiens, UniProt P43681) (P43681 27-627): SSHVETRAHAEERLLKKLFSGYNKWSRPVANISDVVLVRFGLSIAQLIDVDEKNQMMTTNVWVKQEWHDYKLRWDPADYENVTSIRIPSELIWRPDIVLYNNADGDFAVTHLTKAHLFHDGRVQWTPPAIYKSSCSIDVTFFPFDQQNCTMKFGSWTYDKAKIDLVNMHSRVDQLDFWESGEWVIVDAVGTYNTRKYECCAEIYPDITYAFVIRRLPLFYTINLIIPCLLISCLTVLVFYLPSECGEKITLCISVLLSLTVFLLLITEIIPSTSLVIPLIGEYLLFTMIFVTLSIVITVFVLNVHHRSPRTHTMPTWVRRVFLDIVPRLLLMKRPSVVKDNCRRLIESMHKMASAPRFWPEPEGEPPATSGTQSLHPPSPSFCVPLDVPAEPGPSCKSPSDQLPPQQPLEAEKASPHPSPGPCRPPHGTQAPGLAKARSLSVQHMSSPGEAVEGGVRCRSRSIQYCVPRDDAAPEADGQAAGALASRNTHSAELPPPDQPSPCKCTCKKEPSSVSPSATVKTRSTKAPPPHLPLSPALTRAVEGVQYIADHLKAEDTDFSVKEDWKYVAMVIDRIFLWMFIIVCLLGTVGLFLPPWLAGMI
Sequence of receptors (Bioprint panel) (Homo sapiens, UniProt P35414) (P35414 whole entry): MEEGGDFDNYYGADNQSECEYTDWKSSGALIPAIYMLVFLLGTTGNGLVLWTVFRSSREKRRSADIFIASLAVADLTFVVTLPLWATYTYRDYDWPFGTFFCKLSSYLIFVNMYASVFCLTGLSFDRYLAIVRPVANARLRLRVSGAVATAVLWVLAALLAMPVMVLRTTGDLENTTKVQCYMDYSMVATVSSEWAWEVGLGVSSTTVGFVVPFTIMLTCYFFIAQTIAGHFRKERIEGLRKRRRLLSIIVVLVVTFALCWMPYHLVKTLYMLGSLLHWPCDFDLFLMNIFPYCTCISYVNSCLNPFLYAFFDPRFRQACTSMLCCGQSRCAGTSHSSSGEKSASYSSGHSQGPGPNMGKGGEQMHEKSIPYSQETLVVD
Sequence of receptors (Bioprint panel) (Homo sapiens, UniProt P41968) (P41968 whole entry): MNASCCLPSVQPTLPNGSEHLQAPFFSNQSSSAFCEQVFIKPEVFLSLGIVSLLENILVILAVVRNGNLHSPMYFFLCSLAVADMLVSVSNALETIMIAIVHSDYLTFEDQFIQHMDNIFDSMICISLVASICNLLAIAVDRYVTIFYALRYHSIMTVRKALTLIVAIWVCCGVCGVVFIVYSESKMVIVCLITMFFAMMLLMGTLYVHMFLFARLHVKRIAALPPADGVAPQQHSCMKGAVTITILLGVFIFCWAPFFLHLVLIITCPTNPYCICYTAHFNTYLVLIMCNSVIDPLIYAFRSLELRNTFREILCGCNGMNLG
Sequence of receptors (Bioprint panel) (Homo sapiens, UniProt P41597) (P41597 whole entry): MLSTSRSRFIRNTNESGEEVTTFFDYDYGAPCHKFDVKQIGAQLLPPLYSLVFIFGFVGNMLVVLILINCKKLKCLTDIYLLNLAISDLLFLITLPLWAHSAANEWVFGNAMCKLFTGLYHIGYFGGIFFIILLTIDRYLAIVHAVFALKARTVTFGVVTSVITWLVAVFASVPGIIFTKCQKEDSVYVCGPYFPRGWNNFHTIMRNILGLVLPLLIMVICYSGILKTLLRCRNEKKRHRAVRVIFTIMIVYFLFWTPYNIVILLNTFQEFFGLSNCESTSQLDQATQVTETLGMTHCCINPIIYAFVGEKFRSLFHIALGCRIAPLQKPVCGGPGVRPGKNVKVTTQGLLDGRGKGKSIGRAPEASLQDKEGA
Sequence of receptors (Bioprint panel) (Homo sapiens, UniProt Q9UBS5) (Q9UBS5 other isoform, or with tags, fused parts or gaps): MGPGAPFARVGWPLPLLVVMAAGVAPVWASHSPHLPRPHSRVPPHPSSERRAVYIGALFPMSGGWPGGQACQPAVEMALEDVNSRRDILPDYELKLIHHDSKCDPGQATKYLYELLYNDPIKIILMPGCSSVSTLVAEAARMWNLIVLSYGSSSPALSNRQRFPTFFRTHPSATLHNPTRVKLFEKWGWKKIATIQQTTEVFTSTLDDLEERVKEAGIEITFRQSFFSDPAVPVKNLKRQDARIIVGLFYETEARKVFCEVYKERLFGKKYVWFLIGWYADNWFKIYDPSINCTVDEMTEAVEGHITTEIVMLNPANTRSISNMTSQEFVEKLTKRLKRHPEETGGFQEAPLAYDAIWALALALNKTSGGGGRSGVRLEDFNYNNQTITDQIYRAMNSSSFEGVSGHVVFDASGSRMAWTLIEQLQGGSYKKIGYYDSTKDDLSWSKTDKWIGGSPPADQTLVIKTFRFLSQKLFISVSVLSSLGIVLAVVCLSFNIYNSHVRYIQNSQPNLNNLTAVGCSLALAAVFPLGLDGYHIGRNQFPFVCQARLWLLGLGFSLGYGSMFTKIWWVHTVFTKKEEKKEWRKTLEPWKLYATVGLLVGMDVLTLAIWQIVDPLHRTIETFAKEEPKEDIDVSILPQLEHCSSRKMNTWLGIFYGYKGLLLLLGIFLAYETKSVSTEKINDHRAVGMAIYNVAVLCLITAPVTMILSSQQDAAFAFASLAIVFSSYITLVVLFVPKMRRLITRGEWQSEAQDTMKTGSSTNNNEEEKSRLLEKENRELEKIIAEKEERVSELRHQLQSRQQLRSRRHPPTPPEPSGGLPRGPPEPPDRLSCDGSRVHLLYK
Sequence of receptors (Bioprint panel) (Homo sapiens, UniProt P41146) (P41146 whole entry): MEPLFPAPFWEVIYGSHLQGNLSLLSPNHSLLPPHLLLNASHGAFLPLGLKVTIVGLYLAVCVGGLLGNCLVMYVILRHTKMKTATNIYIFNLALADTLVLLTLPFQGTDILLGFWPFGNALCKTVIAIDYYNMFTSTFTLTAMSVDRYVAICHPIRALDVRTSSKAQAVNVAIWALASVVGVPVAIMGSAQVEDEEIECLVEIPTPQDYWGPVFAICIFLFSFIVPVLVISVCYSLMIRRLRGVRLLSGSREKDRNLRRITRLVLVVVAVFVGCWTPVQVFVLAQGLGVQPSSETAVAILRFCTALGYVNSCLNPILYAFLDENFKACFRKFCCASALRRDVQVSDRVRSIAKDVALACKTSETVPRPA
Sequence of receptors (Bioprint panel) (Homo sapiens, UniProt P43119) (P43119 whole entry): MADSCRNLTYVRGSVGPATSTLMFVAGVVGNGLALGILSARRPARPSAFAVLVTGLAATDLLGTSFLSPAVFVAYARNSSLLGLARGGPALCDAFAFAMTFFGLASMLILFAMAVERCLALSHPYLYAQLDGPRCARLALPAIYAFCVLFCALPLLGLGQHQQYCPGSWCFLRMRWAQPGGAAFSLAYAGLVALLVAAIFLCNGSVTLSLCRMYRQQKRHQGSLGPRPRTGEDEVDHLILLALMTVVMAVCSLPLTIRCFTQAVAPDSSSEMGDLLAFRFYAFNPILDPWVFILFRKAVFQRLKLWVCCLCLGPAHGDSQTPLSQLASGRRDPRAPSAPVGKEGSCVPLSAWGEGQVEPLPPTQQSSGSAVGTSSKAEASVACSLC
Sequence of receptors (Bioprint panel) (Homo sapiens, UniProt P32245) (P32245 whole entry): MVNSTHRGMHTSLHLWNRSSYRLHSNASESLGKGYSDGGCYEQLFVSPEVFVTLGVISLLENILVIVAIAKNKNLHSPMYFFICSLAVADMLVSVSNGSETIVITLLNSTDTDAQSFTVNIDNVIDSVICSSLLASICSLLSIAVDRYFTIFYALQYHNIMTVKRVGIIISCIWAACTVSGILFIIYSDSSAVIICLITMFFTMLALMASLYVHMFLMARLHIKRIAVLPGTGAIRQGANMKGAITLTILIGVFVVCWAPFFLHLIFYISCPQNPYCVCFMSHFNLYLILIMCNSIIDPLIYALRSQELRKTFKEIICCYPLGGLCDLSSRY
Sequence of receptors (Bioprint panel) (Homo sapiens, UniProt P08908) (P08908 whole entry): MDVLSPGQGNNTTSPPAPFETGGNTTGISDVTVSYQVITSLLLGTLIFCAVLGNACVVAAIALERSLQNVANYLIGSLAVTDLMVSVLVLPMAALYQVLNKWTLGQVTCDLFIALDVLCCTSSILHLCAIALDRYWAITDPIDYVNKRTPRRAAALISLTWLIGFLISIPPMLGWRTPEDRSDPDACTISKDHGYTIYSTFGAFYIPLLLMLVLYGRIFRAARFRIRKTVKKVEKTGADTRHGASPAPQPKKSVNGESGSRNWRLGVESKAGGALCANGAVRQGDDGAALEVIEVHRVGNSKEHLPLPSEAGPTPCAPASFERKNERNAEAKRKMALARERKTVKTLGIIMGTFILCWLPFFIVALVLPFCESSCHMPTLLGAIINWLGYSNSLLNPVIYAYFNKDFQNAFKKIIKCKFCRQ

Structure (SMILES): CC(C)=CCC[C@H](CO)[C@@H]1CC[C@@H](C)c2c1cc(C)c(O)c2O [Compound 1, 7,8,18-trihydroxyserrulat-14-ene]
- inhibition at 10 µM [1]: 59%
- inhibition at 10 µM [2]: 46%
- inhibition at 10 µM [3]: -4%
- inhibition at 10 µM [4]: 48%
- inhibition at 10 µM [5]: 18%
- inhibition at 10 µM [6]: -18%
- inhibition at 10 µM [7]: 10%
- inhibition at 10 µM [8]: 37%
- inhibition at 10 µM [9]: -17%
- inhibition at 10 µM [10]: 5%
- inhibition at 10 µM [11]: 56%
- inhibition at 10 µM [12]: 10%
- inhibition at 10 µM [13]: 60%
- inhibition at 10 µM [14]: 24%
- inhibition at 10 µM [15]: 16%
- inhibition at 10 µM [16]: 14%
- inhibition at 10 µM [17]: -3%
- inhibition at 10 µM [18]: -9%
- % Inhibition of Control Specific Binding [19]: −9%
- inhibition at 10 µM [20]: 33%
- inhibition at 10 µM [21]: -3%
- inhibition at 10 µM [22]: 63%
- inhibition at 10 µM [23]: 54%
- inhibition at 10 µM [24]: 1%
- inhibition at 10 µM [25]: 39%
- inhibition at 10 µM [26]: -20%
